Consider 22 molecules from ChEMBL document CHEMBL4017471, “Discovery of novel aminobenzisoxazole derivatives as orally available factor IXa inhibitors” (Bioorg Med Chem Lett, 2017).

Series [1] is described as follows: Apparent permeability of the compound at 5 uM after 5 hrs by PAMPA. It counts as physicochemical.
A short description of series [2]: Cmax in rat at 1 mg/kg, po administered as cassette dose. The note with it: in vivo. On the set-up: dose 1 mg/kg, route oral. It counts as ADME, organism-based.
The next series deals with Coagulation factor X (Homo sapiens, UniProt P00742).
Coagulation factor X, sequence (P00742 41-179 limits assumed): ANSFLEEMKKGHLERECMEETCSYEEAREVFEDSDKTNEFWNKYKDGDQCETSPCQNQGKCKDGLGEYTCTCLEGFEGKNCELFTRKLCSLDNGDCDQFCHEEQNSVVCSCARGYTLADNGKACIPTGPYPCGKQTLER
Coagulation factor X, sequence (P00742 235-488 limits assumed): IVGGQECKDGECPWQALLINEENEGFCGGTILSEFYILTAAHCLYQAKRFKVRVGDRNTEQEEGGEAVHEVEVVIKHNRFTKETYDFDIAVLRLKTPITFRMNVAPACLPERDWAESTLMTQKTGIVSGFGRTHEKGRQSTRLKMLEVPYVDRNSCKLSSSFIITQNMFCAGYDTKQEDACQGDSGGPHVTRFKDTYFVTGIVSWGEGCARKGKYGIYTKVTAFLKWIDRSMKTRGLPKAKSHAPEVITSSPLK
The nature of series [3]: Unbound plasma concentration in human at 10 uM measured after 4 hrs by equilibrium dialysis method. It counts as ADME, cell-free. (Equilibrium dialysis compares concentrations on both sides of a semipermeable membrane.)
In another series the test system is Plasma. Nature of the series: Anticoagulant activity in human plasma assessed as concentration required to double activated partial thromboplastin time. It counts as functional.
The next series deals with Coagulation factor IX (Homo sapiens, UniProt P00740).
Coagulation factor IX, sequence (P00740 47-191 limits assumed): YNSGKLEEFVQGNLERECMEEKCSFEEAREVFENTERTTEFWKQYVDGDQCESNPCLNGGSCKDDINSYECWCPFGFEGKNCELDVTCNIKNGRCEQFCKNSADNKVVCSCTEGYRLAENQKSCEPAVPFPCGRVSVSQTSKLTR
Coagulation factor IX, sequence (P00740 227-461 limits assumed): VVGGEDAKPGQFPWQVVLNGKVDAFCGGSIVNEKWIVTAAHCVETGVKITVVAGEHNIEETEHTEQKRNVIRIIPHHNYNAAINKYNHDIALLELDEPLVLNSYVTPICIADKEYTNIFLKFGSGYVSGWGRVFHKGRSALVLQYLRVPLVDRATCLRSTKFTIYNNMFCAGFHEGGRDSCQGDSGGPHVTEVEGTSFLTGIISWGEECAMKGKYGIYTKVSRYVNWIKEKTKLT
Series [4] has as its system Rattus norvegicus. Nature of the series: Anticoagulant activity in po dosed rat assessed as prolongation of activated partial thromboplastin time measured after 2 hrs. It counts as functional, organism-based.
Series [5] has as its system Rattus norvegicus. Nature of the series: Effect on prothrombin time in rat at 1 to 100 mg/kg, po measured after 2 hrs. It counts as functional, organism-based.

A word on the Papp: it is a coefficient for how fast a substance crosses the barrier. One may read the Cmax as the highest concentration seen after dosing. One may read the IC50 as the concentration that inhibits the measured activity by half. Read a low IC50 as greater potency. In general, fraction unbound refers to the share of the substance not bound to proteins or other matrix.

Activity calls are given as the source filed them. No cut-off for these calls is given here.

Description for Coagulation factor X: Inhibition of human coagulation factor 10a

`Cn1ncn(-c2ccc(C(=O)N[C@@H]3CCN(c4ncc(Cl)c5c(N)noc45)C3)c(Cl)c2)c1=O`: in series [1], the Papp at 5 h, 5 µM stood at 10.3 ×10⁻⁶ cm/s. Moreover, the peak level in series [2] (Cmax) was 390 ng/mL. Moreover, the IC50 is > 100 µM at Coagulation factor X and 0.015 µM on Coagulation factor IX. The fraction unbound at 4 h, 10 µM in series [3] came to 0.016. Also, the 2aPTT with Plasma worked out at 13 µM.

Consider `Nc1noc2c(N3CC[C@@H](NC(=O)c4ccc(-n5cnc(CCO)c5)cc4Cl)C3)ncc(Cl)c12`, for which, in series [1], the Papp at 5 h, 5 µM was determined as 1.6 ×10⁻⁶ cm/s. In series [2], this molecule returned a Cmax of 210 ng/mL. The results for the IC50 on Coagulation factor X and at Coagulation factor IX were > 100 µM and 0.013 µM, respectively. For the same molecule, the fraction unbound at 4 h, 10 µM in series [3] was determined as 0.005. The 2aPTT in the series on Plasma was 57 µM.

In the case of `Nc1noc2c(N3CC[C@@H](NC(=O)c4ccc(-n5cnc6ncccc65)cc4Cl)C3)ncc(Cl)c12`, in series [1], the Papp at 5 h, 5 µM stood at 3.1 ×10⁻⁶ cm/s. In addition, the 50% inhibitory concentration (IC50) on Coagulation factor X came out at 25 µM; at Coagulation factor IX, 0.013 µM. This molecule also yielded a free fraction (fraction unbound) at 4 h, 10 µM in series [3] of 0.008. In the series with Plasma, the 2aPTT was 28 µM.

As for `Nc1noc2c(N3CC[C@@H](NC(=O)c4ccc(-c5ncccn5)cc4Cl)C3)ncc(Cl)c12`, the values for the IC50 on Coagulation factor X and on Coagulation factor IX were > 100 µM and > 3 µM, respectively.

As to `Cc1ccc(N2CCC(C)(NC(=O)c3ccc(-n4cnnc4)cc3Cl)C2)c([N+](=O)[O-])c1` (stereo unspecified), the values for the IC50 against Coagulation factor X and against Coagulation factor IX were > 100 µM and 2.2 µM, respectively.

Turning to `Nc1noc2c(N3CC[C@@H](NC(=O)c4ccc(-n5cnnc5)cc4Cl)C3)cc(Cl)c(Cl)c12`, the IC50 was determined as 29 µM at Coagulation factor X and 0.047 µM against Coagulation factor IX.

In the case of `Nc1noc2c(N3CC[C@@H](NC(=O)c4ccc(-n5cnc6ccccc65)cc4Cl)C3)ncc(Cl)c12`, the Papp at 5 h, 5 µM in series [1] came to 3.3 ×10⁻⁶ cm/s. For the same molecule, the Cmax in series [2] turned out to be 110 ng/mL. Moreover, the IC50 against Coagulation factor X was > 100 µM; at Coagulation factor IX, 0.032 µM. This molecule also showed a fraction unbound at 4 h, 10 µM in series [3] of 0.001. In addition, in the series on Plasma, the 2aPTT was 72 µM.

Take `Nc1noc2c(N3CC[C@@H](NC(=O)c4ccc(-n5cnnc5C(F)F)cc4Cl)C3)ncc(Cl)c12`: in series [1], the Papp at 5 h, 5 µM was 2.7 ×10⁻⁶ cm/s. The same molecule had a Cmax in series [2] of 100 ng/mL. Moreover, the figures for the IC50 against Coagulation factor X and at Coagulation factor IX were > 100 µM and 0.045 µM, respectively. The same molecule returned a fraction unbound at 4 h, 10 µM in series [3] of 0.012. In addition, in the series on Plasma, the 2aPTT worked out at 32 µM.

Turning to `Cc1ncn(-c2ccc(C(=O)N[C@@H]3CCN(c4ncc(Cl)c5c(N)noc45)C3)c(Cl)c2)n1`, the Papp at 5 h, 5 µM in series [1] amounted to 11.6 ×10⁻⁶ cm/s. This molecule also came in with a Cmax in series [2] of 330 ng/mL. The values for the half-maximal inhibitory concentration (IC50) against Coagulation factor X and at Coagulation factor IX were > 100 µM and 0.033 µM, respectively. Besides, the fraction unbound at 4 h, 10 µM in series [3] is 0.002. For the same molecule, the 2aPTT in the series with Plasma was found to be 113 µM.

Turning to `Cc1cc(N2CC[C@@H](NC(=O)c3ccc(-n4cnnc4)cc3Cl)C2)c2onc(N)c2c1Cl`, the IC50 against Coagulation factor X was found to be 22 µM; at Coagulation factor IX, 0.062 µM.

As for `Nc1noc2c(N3CC[C@@H](NC(=O)c4ccc(-n5cnnc5)cc4Cl)C3)ccc(Cl)c12`, the IC50 against Coagulation factor X was > 30 µM; on Coagulation factor IX, 0.032 µM.

With `Nc1noc2c(N3CCC(NC(=O)c4ccc(-n5cnnc5)cc4Cl)C3)cccc12` (racemic), the IC50 was > 100 µM against Coagulation factor X and 0.098 µM on Coagulation factor IX.

`Nc1noc2c(N3CCC(NC(=O)c4ccc(-n5cnnc5)cc4Cl)C3)cc(Cl)cc12` (racemic): the results for the IC50 at Coagulation factor X and on Coagulation factor IX were > 100 µM and 0.018 µM, respectively.

With `Cn1cc(-c2ccc(C(=O)N[C@@H]3CCN(c4ncc(Cl)c5c(N)noc45)C3)c(Cl)c2)ccc1=O`, the Papp at 5 h, 5 µM in series [1] amounted to 6.5 ×10⁻⁶ cm/s. Also, the Cmax in series [2] stood at 510 ng/mL. The IC50 on Coagulation factor X turned out to be 20 µM; against Coagulation factor IX, 0.018 µM. For the same molecule, the fraction unbound at 4 h, 10 µM in series [3] was found to be 0.004. Further, in the series on Plasma, the 2aPTT worked out at 85 µM.

`O=C(NC[C@H]1CN(c2ccc(N3CCOCC3=O)cc2)C(=O)O1)c1ccc(Cl)s1`: the result in the series with Rattus norvegicus [4] and with Rattus norvegicus [5] was Active.

Consider `Cn1cc(-c2ccc(C(=O)N[C@@H]3CCN(c4ncc(Cl)c5c(N)noc45)C3)c(Cl)c2)cnc1=O`, for which the Papp at 5 h, 5 µM in series [1] is 0.7 ×10⁻⁶ cm/s. Besides, the IC50 on Coagulation factor X is 26 µM; at Coagulation factor IX, 0.036 µM. The molecule further displayed a fraction unbound at 4 h, 10 µM in series [3] of 0.017. Also, the 2aPTT in the series with Plasma worked out at 47 µM.

With `Nc1noc2c(N3CC[C@@H](NC(=O)c4ccc(-n5cnnc5)cc4Cl)C3)ncc(Cl)c12`, the apparent permeability (Papp) at 5 h, 5 µM in series [1] is 0.7 ×10⁻⁶ cm/s. The molecule also came in with a Cmax in series [2] of 120 ng/mL. In addition, the IC50 against Coagulation factor X was 78 µM; on Coagulation factor IX, 0.031 µM. The fraction unbound at 4 h, 10 µM in series [3] turned out to be 0.012.

For the molecule `Nc1noc2c(N3CCC(NC(=O)c4ccc(-n5cnnc5)cc4Cl)C3)nccc12` (racemic), the IC50 against Coagulation factor X was > 100 µM; against Coagulation factor IX, 0.089 µM.

For `Nc1noc2c(N3CC[C@@H](NC(=O)c4ccc(-n5cnnc5)cc4Cl)C3)ccc(F)c12`, the IC50 was > 100 µM on Coagulation factor X and 0.172 µM against Coagulation factor IX.

For the molecule `Cc1cc2c(N)noc2c(N2CC[C@@H](NC(=O)c3ccc(-n4cnnc4)cc3Cl)C2)n1`, the IC50 was > 100 µM at Coagulation factor X and 0.041 µM against Coagulation factor IX.

Regarding `Cc1cc(N2CCC(NC(=O)c3ccc(-n4cnnc4)cc3Cl)C2)c2onc(N)c2c1` (racemic), the IC50 against Coagulation factor X is > 100 µM; on Coagulation factor IX, 0.05 µM.

Regarding `Nc1noc2c(N3CC[C@@H](NC(=O)c4ccc(-c5cncnc5)cc4Cl)C3)ncc(Cl)c12`, the Papp at 5 h, 5 µM in series [1] came out at 9.4 ×10⁻⁶ cm/s. Besides, the Cmax in series [2] came to 380 ng/mL. Further, the IC50 was > 100 µM at Coagulation factor X and 0.026 µM against Coagulation factor IX. This molecule also showed a fraction unbound at 4 h, 10 µM in series [3] of 0.002. Further, the 2aPTT in the series with Plasma is 101 µM.
